Biological target: T1, recombinant autotaxin (Homo sapiens, UniProt Q13822)
T1 construct: made in house; host or cells: Hi5 insect cells (baculovirus)
Assay: Autotaxin assay (Amplex Red, LPC substrate)
Format: biochemical
Conditions: 75 μM LPC, Amplex Red fluorescence, ten 1:3 dilutions starting at 30 μM
Procedure: Autotaxin activity is measured indirectly by means of Amplex Red Reagent. In this course, Amplex Red is measured as fluorogenic indicator for generated H2O2. Autotaxin converts substrate lysophosphatidylcholine (LPC) to phosphocholine and lysophosphatidylic acid (LPA). After the conversion phosphocholine is reacted with alkaline phosphatase to obtain inorganic phosphate and choline. During the next step choline is oxidized with choline oxidase to yield betaine, whereby H2O2 is generated. H2O2 reacts with Amplex Red Reagent in the presence of peroxidase (Horseradish peroxidase) in an 1:1 stochiometry and yields highly fluorescent resorufin. The generated fluorescence is measured in a reaction-dependent kinetic mode in order to enable subtraction of fluorescence signals of possible other fluorescent compounds that are not part of the reaction from total measured fluorescence.
1.5 μl of a standard solution or of the compounds of the invention are dissolved in 20 mM Hepes pH 7.2 with maximally 7.7% DMSO in individual concentrations. The resulting solution is pre-incubated together with 10 μl (16 ng) of highly purified recombinant autotaxin in a black 384-hole microtiter plate for 30 min at 22° C. Thereafter, the reaction is started through the addition of 5 μL-a-lysophosphatidylcholine (LPC), whereby the final concentration of LPC is 75 μM. The mixture is incubated for 90 min. at 37° C. After the incubation Amplex Red Reagent, peroxidase (Horseradish peroxidase) and choline oxidase are added. The fluorescence is immediately measured at a wavelength of 612 nm with an excitation wavelength of 485 nm in a “Tecan Ultra multimode” fluorescence reader. The activity of autotaxin is indirectly calculated via the amount of detected generated H2O2.
For IC50 analysis, ten serial 1:3 dilutions starting at 30 μM for each compound were run in duplicates.
IC50 values were calculated on normalized data. For normalization, control wells were added to each assay plate and the signal of uninhibited control wells was set to 100%, whereas the signal inhibited by 500 μM C14 LPA, (Avanti Polar Lipids, Cat# 857120P) was set to 0%. Curves were fitted and IC50 values calculated by the following model using proprietary analysis software: Y=Bottom+(100−Bottom)/(1+10^((LogIC50−X)*HillSlope))
Where X is the logarithm of concentration. Y is the response; Y starts at Bottom and goes to Top with a sigmoid shape.
Protein: Recombinant autotaxin (baculoviral Hi5 expression)
Substrate: L-a-lysophosphatidyl choline (chicken egg); Avanti Polar Lipids #830071 P
Standard: C14 LPA, Avanti Polar Lipids, Cat# 857120P
Detection Reagent Amplex Red Reagent; Invitrogen #A12222; dissolved in 1.923 ml of DMSO peroxidase Type VI-A (horseradish), Sigma #P6782; dissolved in 7.45 ml of test buffer, Choline Oxidase; Sigma #C5896; dissolved in 2.47 ml test buffer
Detection Reagent Mix: 1:100 dilution of Amplex Red Regent in test buffer
Test buffer: 200 mM Tris-HCl, Merck, Cat # 1.08219, pH 7.9; 0.1% BSA, lipid free, Roche Cat#775835

| SMILES | IC50 |
| --- | --- |
| O=C(NCc1ccco1)C1CCN(c2nccc3nc(NCc4ccccc4Cl)ncc23)CC1 [Compound 65, 1-[2-(2-Chloro-benzylamino)-pyrido[4,3-d]pyrimidin-5-yl]-piperidine-4-carboxylic acid (furan-2-ylmethyl)-amide] | < 5 µM |
| O=C(O)CN1CCN(c2nccc3nc(NCc4ccccc4Cl)ncc23)CC1 [Compound 145, {4-[2-(2-Chloro-benzylamino)-pyrido[4,3-d]pyrimidin-5-yl]-piperazin-1-yl}-acetic acid] | < 10 µM |
| COc1ccc(CNc2ncc3c(Nc4ccc(F)c(F)c4)nccc3n2)cc1 [Compound 58, N5-(3,4-Difluoro-phenyl)-N2-(4-methoxy-benzyl)-pyrido[4,3-d]pyrimidine-2,5-diamine] | < 30 µM |
| Fc1ccc(CNc2ncc3c(Nc4ccc5c(c4)OCO5)nccc3n2)cc1 [Compound 26, N5-Benzo[1,3]dioxol-5-yl-N2-(4-fluoro-benzyl)-pyrido[4,3-d]pyrimidine-2,5-diamine] | < 30 µM |
| Clc1ccc(CNc2ncc3c(Nc4ccc5c(c4)OCO5)nccc3n2)cc1 [Compound 46, N5-Benzo[1,3]dioxol-5-yl-N2-(4-chloro-benzyl)-pyrido[4,3-d]pyrimidine-2,5-diamine] | < 30 µM |
| CCOCCCNC(=O)C1CCN(c2nccc3nc(NCc4ccccc4Cl)ncc23)CC1 [Compound 98, 1-[2-(2-Chloro-benzylamino)-pyrido[4,3-d]pyrimidin-5-yl]-piperidine-4-carboxylic acid (3-ethoxy-propyl)-amide] | < 5 µM |
| Clc1ccccc1CNc1ncc2c(N3CCN(c4nccs4)CC3)nccc2n1 [Compound 109, (2-Chloro-benzyl)-[5-(4-thiazol-2-yl-piperazin-1-yl)-pyrido[4,3-d]pyrimidin-2-yl]amine] | < 10 µM |
| CS(=O)(=O)CS(=O)(=O)N1CCN(c2nccc3nc(NCc4ccccc4Cl)ncc23)CC1 [Compound 156, (2-Chloro-benzyl)-[5-(4-methanesulfonylmethanesulfonyl-piperazin-1-yl)-pyrido[4,3-d]pyrimidin-2-yl]-amine] | < 30 µM |
| Clc1ccccc1CNc1ncc2c(NCCc3ccccn3)nccc2n1 [Compound 146, N2-(2-Chloro-benzyl)-N5-(2-pyridin-2-yl-ethyl)-pyrido[4,3-d]pyrimidine-2,5-diamine] | < 30 µM |
| CCCNC(=O)C1CCN(c2nccc3nc(NCc4ccccc4Cl)ncc23)CC1 [Compound 68, 1-[2-(2-Chloro-benzylamino)-pyrido[4,3-d]pyrimidin-5-yl]-piperidine-4-carboxylic acid propylamide] | < 10 µM |
| COc1ccc(CNc2ncc3c(Nc4cc(OC)ccc4OC)nccc3n2)cc1 [Compound 51, N5-(2,5-Dimethoxy-phenyl)-N2-(4-methoxy-benzyl)-pyrido[4,3-d]pyrimidine-2,5-diamine] | < 30 µM |
| CN1CCN(C(=O)C2CCCN(c3nccc4nc(NCc5ccccc5Cl)ncc34)C2)CC1 (stereo not shown) [Compound 104, {1-[2-(2-Chloro-benzylamino)-pyrido[4,3-d]pyrimidin-5-yl]-piperidin-3-yl}-(4-methyl-piperazin-1-yl)-methanone] | < 30 µM |
| Clc1ccccc1CNc1ncc2c(NCc3cccnc3)nccc2n1 [Compound 11, N2-(2-Chloro-benzyl)-N5-pyridin-3-ylmethyl-pyrido[4,3-d]pyrimidine-2,5-diamine] | < 30 µM |
| Clc1ccccc1CNc1ncc2c(N3CCCC3)nccc2n1 [Compound 8, (2-Chloro-benzyl)-(5-pyrrolidin-1-yl-pyrido[4,3-d]pyrimidin-2-yl)-amine] | < 5 µM |
| COc1ccccc1CNc1ncc2c(Nc3ccc(F)cc3F)nccc2n1 [Compound 37, N5-(2,4-Difluoro-phenyl)-N2-(2-methoxy-benzyl)-pyrido[4,3-d]pyrimidine-2,5-diamine] | < 30 µM |
| O=C(C1CCN(c2nccc3nc(NCc4ccccc4Cl)ncc23)CC1)N1CCC[C@H]1CN1CCCC1 [Compound 142, {1-[2-(2-Chloro-benzylamino)-pyrido[4,3-d]pyrimidin-5-yl]-piperidin-4-yl}-((S)-2-pyrrolidin-1-ylmethyl-pyrrolidin-1-yl)-methanone] | < 30 µM |

| SMILES | IC50 |
| --- | --- |
| COc1ccc(CNc2ncc3c(Nc4ccc(F)cc4F)nccc3n2)cc1 [Compound 52, N5-(2,4-Difluoro-phenyl)-N2-(4-methoxy-benzyl)-pyrido[4,3-d]pyrimidine-2,5-diamine] | < 30 µM |
| O=C(NCc1ccco1)N1CCN(c2nccc3nc(NCc4ccccc4Cl)ncc23)CC1 [Compound 117, 4-[2-(2-Chloro-benzylamino)-pyrido[4,3-d]pyrimidin-5-yl]-piperazine-1-carboxylic acid (furan-2-ylmethyl)-amide] | < 30 µM |
| Cc1cc(F)ccc1Nc1nccc2nc(NCc3ccc(F)cc3)ncc12 [Compound 28, N2-(4-Fluoro-benzyl)-N5-(4-fluoro-2-methyl-phenyl)-pyrido[4,3-d]pyrimidine-2,5-diamine] | < 30 µM |
| O=C(NCc1ccco1)C1CCCN(c2nccc3nc(NCc4ccccc4Cl)ncc23)C1 (stereo not shown) [Compound 83, 1-[2-(2-Chloro-benzylamino)-pyrido[4,3-d]pyrimidin-5-yl]-piperidine-3-carboxylic acid (furan-2-ylmethyl)-amide] | < 30 µM |
| CC(=O)N1CCN(c2nccc3nc(NCc4ccccc4Cl)ncc23)CC1 [Compound 115, 1-{4-[2-(2-Chloro-benzylamino)-pyrido[4,3-d]pyrimidin-5-yl]-piperazin-1-yl}-ethanone] | < 30 µM |
| O=C(C1CCCN(c2nccc3nc(NCc4ccc(Cl)cc4)ncc23)C1)N1CCN(c2ccccn2)CC1 (stereo not shown) [Compound 94, {1-[2-(4-Chloro-benzylamino)-pyrido[4,3-d]pyrimidin-5-yl]-piperidin-3-yl}-(4-pyridin-2-yl-piperazin-1-yl)-methanone] | < 10 µM |
| O=C(NC1CC1)C1CCCN(c2nccc3nc(NCc4ccccc4Cl)ncc23)C1 (stereo not shown) [Compound 86, 1-[2-(2-Chloro-benzylamino)-pyrido[4,3-d]pyrimidin-5-yl]-piperidine-3-carboxylic acid cyclopropylamide] | < 5 µM |
| COc1ccc(CNc2ncc3c(Nc4ccc5c(c4)OCCO5)nccc3n2)cc1 [Compound 55, N5-(2,3-Dihydro-benzo[1,4]dioxin-6-yl)-N2-(4-methoxy-benzyl)-pyrido[4,3-d]pyrimidine-2,5-diamine] | < 30 µM |
| CC(C)NC(=O)C1CCCN(c2nccc3nc(NCc4ccccc4Cl)ncc23)C1 (stereo not shown) [Compound 84, 1-[2-(2-Chloro-benzylamino)-pyrido[4,3-d]pyrimidin-5-yl]-piperidine-3-carboxylic acid isopropylamide] | < 5 µM |
| c1ccc(CNc2ncc3c(N4CCCC4)nccc3n2)cc1 [Compound 1, Benzyl-(5-pyrrolidin-1-yl-pyrido[4,3-d]pyrimidin-2-yl)-amine] | < 30 µM |
| O=C(NC1CC1)C1CCN(c2nccc3nc(NCc4ccccc4Cl)ncc23)CC1 [Compound 69, 1-[2-(2-Chloro-benzylamino)-pyrido[4,3-d]pyrimidin-5-yl]-piperidine-4-carboxylic acid cyclopropylamide] | < 10 µM |
| COc1ccccc1CNc1ncc2c(Nc3ccc(C)cc3)nccc2n1 [Compound 36, N2-(2-Methoxy-benzyl)-N5-p-tolyl-pyrido[4,3-d]pyrimidine-2,5-diamine] | < 30 µM |
| O=C(Cc1cccnc1)N1CCN(c2nccc3nc(NCc4ccccc4Cl)ncc23)CC1 [Compound 121, 1-{4-[2-(2-Chloro-benzylamino)-pyrido[4,3-d]pyrimidin-5-yl]-piperazin-1-yl}-2-pyridin-3-yl-ethanone] | < 5 µM |
| COCCOCC(=O)N1CCN(c2nccc3nc(NCc4ccccc4Cl)ncc23)CC1 [Compound 136, 1-{4-[2-(2-Chloro-benzylamino)-pyrido[4,3-d]pyrimidin-5-yl]-piperazin-1-yl}-2-(2-methoxy-ethoxy)-ethanone] | < 30 µM |
| COc1ccc(Nc2nccc3nc(NCc4ccc(F)cc4)ncc23)cc1OC [Compound 27, N5-(3,4-Dimethoxy-phenyl)-N2-(4-fluoro-benzyl)-pyrido[4,3-d]pyrimidine-2,5-diamine] | < 30 µM |

Reference: patent US8530650B2, “2, 5-diamino-substituted pyrido [4, 3-D] pyrimidines as autotaxin inhibitors against cancer” (MERCK PATENT GmbH, priority 2008, dated 2013)
